Results as given in ChEMBL document CHEMBL5058646 (2022).

Experiments:
[1] = biological target: Homeodomain-interacting protein kinase 2 (Homo sapiens) (UniProt Q9H2X6); assay: HIPK2 SGC Tm panel (DSF); details: Compound concentration 20.0 uM
[2] = biological target: Dual specificity mitogen-activated protein kinase kinase 4 (Homo sapiens) (UniProt P45985); assay: MAP2K4 SGC Tm panel (DSF); details: Compound concentration 20.0 uM
[3] = biological target: Muscarinic acetylcholine receptor M3 (Homo sapiens) (UniProt P20309); details: Compound concentration 10.0 uM
[4] = biological target: T1, Zinc finger and BTB domain-containing protein 11 (Homo sapiens) (UniProt O95625); details: OCI-Ly1, Compound concentration 1.0 uM
T1 sequence (whole entry): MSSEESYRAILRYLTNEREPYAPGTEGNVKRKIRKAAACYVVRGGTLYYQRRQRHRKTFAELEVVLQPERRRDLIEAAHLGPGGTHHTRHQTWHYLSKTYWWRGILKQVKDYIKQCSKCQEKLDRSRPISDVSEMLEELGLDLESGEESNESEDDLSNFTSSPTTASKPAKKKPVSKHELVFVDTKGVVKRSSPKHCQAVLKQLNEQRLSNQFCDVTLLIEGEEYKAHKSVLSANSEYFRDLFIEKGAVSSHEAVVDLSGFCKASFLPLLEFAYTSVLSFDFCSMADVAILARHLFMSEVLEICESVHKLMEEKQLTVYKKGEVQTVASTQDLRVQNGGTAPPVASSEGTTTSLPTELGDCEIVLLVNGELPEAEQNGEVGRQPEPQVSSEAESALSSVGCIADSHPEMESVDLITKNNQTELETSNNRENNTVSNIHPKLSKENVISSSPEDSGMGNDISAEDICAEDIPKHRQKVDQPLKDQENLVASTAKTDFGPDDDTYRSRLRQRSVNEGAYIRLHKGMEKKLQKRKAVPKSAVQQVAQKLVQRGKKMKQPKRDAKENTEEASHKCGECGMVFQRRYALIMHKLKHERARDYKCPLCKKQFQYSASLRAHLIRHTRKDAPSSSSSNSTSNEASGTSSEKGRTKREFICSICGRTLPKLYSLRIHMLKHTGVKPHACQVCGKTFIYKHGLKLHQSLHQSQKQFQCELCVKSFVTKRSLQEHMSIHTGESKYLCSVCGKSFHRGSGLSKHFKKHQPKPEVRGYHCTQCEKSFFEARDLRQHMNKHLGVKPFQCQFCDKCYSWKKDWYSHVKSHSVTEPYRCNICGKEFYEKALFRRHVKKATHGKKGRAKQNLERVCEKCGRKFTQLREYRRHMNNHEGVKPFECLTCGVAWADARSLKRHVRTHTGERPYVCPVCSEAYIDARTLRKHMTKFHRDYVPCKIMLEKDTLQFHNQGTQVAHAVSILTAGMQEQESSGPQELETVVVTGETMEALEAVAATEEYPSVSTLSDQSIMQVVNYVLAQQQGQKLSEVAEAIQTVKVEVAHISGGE

[5] = biological target: Zinc finger and BTB domain-containing protein 21 (Homo sapiens) (UniProt Q9ULJ3); details: SUD4, Compound concentration 1.0 uM
[6] = biological target: T2, Transcriptional regulator Kaiso (Homo sapiens) (UniProt Q86T24); details: SUD4, Compound concentration 1.0 uM
T2 sequence (whole entry): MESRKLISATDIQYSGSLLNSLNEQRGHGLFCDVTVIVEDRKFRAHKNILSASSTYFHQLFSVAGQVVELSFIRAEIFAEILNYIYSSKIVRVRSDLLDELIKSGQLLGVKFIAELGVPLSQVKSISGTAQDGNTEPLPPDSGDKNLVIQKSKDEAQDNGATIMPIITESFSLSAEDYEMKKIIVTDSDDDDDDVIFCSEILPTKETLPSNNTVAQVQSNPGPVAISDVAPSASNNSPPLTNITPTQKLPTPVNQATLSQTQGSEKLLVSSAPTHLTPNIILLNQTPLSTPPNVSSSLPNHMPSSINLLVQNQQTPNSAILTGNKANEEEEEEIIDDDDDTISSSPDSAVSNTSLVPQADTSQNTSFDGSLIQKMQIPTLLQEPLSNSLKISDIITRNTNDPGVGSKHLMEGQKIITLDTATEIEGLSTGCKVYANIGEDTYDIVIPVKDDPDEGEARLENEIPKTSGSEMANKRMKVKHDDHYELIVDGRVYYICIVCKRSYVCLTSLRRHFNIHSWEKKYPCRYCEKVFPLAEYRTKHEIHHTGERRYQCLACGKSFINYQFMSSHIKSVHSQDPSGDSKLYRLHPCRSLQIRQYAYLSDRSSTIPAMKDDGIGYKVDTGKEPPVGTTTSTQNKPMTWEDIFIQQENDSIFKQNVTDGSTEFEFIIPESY

[7] = biological target: Muscarinic acetylcholine receptor M5 (Homo sapiens) (UniProt P08912); details: Compound concentration 10.0 uM
[8] = biological target: T3, Zinc finger and BTB domain-containing protein 10 (Homo sapiens) (UniProt Q96DT7); details: SUD4, Compound concentration 1.0 uM
T3 sequence (whole entry): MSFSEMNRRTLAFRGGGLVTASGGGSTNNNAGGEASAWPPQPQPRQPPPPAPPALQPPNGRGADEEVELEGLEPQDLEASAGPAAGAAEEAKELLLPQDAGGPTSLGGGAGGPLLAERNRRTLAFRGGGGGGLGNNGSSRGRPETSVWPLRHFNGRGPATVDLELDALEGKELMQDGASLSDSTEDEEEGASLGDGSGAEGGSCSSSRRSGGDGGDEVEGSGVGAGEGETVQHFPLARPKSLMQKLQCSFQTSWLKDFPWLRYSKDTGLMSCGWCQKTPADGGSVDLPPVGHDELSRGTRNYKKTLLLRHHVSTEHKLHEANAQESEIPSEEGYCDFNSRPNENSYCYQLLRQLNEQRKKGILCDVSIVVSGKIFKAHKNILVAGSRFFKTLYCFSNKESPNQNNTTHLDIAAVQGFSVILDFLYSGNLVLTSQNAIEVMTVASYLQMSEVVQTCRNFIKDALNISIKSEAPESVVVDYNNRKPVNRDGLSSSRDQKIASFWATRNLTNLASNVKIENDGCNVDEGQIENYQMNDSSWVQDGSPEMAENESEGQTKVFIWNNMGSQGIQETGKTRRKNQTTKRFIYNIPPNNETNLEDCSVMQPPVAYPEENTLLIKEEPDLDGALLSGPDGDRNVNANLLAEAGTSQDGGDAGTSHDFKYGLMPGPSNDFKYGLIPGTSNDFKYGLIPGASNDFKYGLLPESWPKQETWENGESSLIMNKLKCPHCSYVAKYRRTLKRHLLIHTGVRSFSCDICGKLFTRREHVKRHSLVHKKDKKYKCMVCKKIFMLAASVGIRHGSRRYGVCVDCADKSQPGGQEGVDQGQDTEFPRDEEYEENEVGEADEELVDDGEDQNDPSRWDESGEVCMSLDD

[9] = biological target: Zinc finger and BTB domain-containing protein 17 (Homo sapiens) (UniProt Q13105); details: SUD4, Compound concentration 1.0 uM
Zinc finger and BTB domain-containing protein 17 (Homo sapiens), sequence (Q13105 whole entry, the tested form may be a part): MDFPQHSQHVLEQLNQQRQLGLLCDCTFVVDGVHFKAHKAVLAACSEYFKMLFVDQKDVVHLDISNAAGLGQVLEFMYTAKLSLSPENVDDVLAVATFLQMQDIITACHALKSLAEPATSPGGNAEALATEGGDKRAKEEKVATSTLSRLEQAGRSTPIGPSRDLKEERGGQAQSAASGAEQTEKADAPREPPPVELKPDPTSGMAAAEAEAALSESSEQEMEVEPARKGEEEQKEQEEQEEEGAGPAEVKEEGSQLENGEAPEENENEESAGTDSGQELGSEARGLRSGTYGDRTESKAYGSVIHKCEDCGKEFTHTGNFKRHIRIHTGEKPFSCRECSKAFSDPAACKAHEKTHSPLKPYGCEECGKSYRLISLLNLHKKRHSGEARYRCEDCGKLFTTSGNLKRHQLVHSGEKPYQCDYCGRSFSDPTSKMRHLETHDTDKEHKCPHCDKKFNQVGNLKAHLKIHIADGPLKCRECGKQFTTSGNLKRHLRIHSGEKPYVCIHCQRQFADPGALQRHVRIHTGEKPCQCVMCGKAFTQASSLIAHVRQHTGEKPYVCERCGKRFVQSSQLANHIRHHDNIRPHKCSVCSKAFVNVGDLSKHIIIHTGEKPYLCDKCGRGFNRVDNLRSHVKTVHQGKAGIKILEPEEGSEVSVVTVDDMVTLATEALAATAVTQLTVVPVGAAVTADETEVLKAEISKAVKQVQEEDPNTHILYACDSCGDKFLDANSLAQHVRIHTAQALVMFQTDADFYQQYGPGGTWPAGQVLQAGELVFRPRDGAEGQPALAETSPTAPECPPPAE

Muscarinic acetylcholine receptor M5 (Homo sapiens), sequence (P08912 whole entry, the tested form may be a part): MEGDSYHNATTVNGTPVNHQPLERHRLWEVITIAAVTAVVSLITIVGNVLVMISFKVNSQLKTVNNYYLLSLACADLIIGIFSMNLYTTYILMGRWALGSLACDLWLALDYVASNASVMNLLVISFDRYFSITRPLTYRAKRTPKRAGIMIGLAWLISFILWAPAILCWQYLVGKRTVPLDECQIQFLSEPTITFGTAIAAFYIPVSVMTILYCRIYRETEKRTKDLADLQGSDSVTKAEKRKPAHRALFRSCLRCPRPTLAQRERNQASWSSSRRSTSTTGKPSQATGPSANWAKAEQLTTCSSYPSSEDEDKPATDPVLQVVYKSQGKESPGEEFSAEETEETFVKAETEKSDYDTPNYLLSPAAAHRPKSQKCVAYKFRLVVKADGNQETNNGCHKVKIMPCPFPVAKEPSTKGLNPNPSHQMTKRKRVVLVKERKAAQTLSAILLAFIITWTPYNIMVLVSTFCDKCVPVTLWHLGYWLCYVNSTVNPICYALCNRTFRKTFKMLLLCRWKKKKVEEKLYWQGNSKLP
Dual specificity mitogen-activated protein kinase kinase 4 (Homo sapiens), sequence (P45985 whole entry): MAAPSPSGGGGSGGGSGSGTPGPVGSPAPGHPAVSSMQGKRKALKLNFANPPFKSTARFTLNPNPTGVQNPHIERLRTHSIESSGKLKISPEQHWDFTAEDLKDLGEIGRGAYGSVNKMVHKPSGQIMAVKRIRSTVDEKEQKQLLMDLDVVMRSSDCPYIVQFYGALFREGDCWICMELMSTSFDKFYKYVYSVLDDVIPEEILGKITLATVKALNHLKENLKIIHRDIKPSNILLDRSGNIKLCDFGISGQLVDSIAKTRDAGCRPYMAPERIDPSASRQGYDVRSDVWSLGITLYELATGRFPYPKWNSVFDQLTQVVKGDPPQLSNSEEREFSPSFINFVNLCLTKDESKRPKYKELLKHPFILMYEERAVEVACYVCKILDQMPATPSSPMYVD
Homeodomain-interacting protein kinase 2 (Homo sapiens), sequence (Q9H2X6 whole entry, looked up): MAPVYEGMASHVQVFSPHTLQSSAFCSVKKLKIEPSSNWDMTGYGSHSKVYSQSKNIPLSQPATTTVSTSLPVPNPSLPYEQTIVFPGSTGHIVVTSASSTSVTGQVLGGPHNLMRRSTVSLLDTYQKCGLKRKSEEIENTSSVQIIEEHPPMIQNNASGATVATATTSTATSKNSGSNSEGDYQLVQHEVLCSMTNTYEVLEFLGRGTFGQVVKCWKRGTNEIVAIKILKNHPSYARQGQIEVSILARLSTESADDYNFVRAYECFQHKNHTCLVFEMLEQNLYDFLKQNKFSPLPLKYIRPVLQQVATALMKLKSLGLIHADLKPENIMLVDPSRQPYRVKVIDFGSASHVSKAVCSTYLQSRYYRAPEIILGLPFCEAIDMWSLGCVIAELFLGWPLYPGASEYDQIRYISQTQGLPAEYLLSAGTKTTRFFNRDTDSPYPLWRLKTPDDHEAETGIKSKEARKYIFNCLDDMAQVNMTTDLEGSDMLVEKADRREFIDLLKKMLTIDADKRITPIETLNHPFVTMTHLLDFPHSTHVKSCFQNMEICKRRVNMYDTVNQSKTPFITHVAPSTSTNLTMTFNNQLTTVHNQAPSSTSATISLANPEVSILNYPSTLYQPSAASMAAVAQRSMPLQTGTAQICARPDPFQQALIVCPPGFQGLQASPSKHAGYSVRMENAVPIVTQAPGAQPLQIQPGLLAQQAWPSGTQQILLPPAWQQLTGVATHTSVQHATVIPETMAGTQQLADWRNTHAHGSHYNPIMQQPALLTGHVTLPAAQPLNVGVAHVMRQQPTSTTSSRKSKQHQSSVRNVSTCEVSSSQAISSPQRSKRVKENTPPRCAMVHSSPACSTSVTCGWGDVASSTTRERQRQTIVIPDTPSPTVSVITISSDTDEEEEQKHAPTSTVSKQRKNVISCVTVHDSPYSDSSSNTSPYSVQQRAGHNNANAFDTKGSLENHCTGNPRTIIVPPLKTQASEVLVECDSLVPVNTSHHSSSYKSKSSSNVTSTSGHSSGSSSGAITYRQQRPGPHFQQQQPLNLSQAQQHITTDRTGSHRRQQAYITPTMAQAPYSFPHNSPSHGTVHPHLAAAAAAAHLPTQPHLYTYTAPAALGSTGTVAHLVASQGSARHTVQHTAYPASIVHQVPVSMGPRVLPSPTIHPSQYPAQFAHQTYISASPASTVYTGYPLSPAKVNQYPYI
Zinc finger and BTB domain-containing protein 21 (Homo sapiens), sequence (Q9ULJ3 whole entry, the tested form may be a part): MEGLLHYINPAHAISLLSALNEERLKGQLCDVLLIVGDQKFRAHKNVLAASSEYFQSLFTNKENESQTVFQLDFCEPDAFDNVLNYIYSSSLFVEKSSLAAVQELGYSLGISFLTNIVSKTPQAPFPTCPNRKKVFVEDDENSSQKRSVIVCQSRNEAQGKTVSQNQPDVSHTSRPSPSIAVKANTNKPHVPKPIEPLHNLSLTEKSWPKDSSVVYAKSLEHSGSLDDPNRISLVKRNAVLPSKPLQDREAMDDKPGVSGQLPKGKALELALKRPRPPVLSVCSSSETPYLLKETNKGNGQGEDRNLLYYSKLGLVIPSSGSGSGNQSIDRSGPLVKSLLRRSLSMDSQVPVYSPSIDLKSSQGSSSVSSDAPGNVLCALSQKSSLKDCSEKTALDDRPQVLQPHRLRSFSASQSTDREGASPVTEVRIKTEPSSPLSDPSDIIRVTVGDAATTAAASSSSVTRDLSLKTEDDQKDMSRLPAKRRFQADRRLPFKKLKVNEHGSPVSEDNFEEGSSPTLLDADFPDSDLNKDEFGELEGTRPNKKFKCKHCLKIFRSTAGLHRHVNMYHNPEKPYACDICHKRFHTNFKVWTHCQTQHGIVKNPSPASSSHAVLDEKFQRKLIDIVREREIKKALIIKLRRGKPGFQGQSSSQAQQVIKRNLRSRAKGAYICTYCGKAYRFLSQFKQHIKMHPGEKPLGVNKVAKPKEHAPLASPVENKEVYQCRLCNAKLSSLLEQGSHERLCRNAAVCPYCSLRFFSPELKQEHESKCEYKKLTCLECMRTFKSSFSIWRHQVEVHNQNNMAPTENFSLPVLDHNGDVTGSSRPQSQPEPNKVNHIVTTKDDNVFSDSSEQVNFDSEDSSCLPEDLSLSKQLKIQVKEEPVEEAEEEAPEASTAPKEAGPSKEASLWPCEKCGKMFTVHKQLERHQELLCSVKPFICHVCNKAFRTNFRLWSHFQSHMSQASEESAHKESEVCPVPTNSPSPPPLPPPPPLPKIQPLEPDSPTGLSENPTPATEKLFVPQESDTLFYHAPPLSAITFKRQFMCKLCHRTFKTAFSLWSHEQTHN
Muscarinic acetylcholine receptor M3 (Homo sapiens), sequence (P20309 whole entry, looked up, the tested form may be a part): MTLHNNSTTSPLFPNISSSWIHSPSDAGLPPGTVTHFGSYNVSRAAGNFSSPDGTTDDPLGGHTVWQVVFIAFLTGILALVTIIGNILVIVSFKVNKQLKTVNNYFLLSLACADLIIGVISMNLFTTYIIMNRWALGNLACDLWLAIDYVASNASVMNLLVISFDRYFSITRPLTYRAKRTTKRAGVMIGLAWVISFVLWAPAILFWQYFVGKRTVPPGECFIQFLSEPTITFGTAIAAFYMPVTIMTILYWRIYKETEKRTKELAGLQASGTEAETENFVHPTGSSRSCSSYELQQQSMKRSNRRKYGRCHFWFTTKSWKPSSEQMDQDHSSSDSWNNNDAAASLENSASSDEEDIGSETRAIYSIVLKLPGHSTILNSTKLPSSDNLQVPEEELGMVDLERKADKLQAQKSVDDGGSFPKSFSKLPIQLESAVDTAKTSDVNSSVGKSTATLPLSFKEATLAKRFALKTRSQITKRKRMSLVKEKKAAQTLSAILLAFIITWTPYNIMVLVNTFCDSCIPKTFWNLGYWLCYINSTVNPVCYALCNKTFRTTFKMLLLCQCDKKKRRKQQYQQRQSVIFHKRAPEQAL

Tm [1]: 43 °C
Tm [2]: 41 °C
inhibition [3]: 12%
LogFC [4]: -0.00672
LogFC [5]: 0.0103
LogFC [6]: 0.0744
inhibition [7]: 20.6%
LogFC [8]: 0.0283
LogFC [9]: 0.0294
SMILES: C[C@@H]1CN(c2ncc(Cl)c(Nc3ccc4c(c3)n(CCC(C)(C)O)c(=O)n4C)n2)C[C@H](C)C1(F)F
